In patent publication US4868195A, “Novel enolamides, pharmaceutical compositions and methods of use thereof for activity as modulators of the arachidonic acid cascade” (Warner-Lambert Company, priority 1988, dated 1989):

Target: Human Leukocyte Lipoxygenase
Assay: Human Leukocyte Lipoxygenase Assay (LDA-H)
Assay type: biochemical
Details: for IC50: acetone-pentane powder enzyme, 234 nm, 24° C., 5 min preincubation, read-out: Concentration (M) for 50.0 % Inhibition, IC (LDAH); for % Inhibition (LDAH): Concentration 2.50 E -5 M
How it was run: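 Enzyme from acetone-pentane powder of human buffy-coat leukocytes, extracted in 0.1M Tris pH 7.4. Compound preincubated 5 min with enzyme, then reaction started with arachidonic or linoleic acid (100 μM or 1.0 μM) and followed at 234 nm (conjugated diene) at 24° C. IC50 is molar concentration halving control rate.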

IC50 [M]	% Inhibition (LDAH) [%]	Structure (SMILES)
	0.0	CCCCOc1ccc(CCc2ccc(NC(=O)C3CS(=O)(=O)c4ccccc4C3=O)cc2)cc1 (centres unmarked) [Example 48]
5.1e-05		O=C(Nc1ccc(CCc2ccccc2)cc1)C1CS(=O)(=O)c2ccccc2C1=O (centres unmarked) [Example 16, 3,4-Dihydro-4-oxo-N-[(4-(2-phenyl)ethyl]-phenyl]-2H-1-benzothiopyran-3-carboxamide, 1,1-dioxide]
2.5e-05		CCCCCCCCCCc1ccc(NC(=O)C2CS(=O)(=O)c3ccccc3C2=O)cc1 (centres unmarked) [Example 60, N-(4-Decylphenyl)-3,4-dihydro-4-oxo-2H-1-benzoothiopyran-3-carboxamide, 1,1-dioxide]

Further lines, the compound ahead of its results:

Structure (SMILES)	IC50 [M]	% Inhibition (LDAH) [%]
COc1ccc(CCc2ccc(NC(=O)c3sc4ccccc4c3O)cc2)cc1OC [Example 143, Benzo[b]thiophene-2-carboxamide, N-[4-[2-(3,4-dimethoxphenyl)ethyl]phenyl]-3-hydroxy]	4.4e-06	
O=C(Nc1ccc(CCc2ccc3ccccc3c2)cc1)C1=C(O)c2ccccc2S(=O)(=O)C1 [Example 51, 4-Hydroxy-N-[4-[2-(2-naphthalenyl)ethyl]phenyl]-2H-1-benzothiopyran-3-carboxamide, 1,1-dioxide]		0.0
O=C(Nc1ccc(CCc2ccc(Cl)cc2)cc1)C1CS(=O)(=O)c2ccccc2C1=O (centres unmarked) [Example 54, N-[4-[2-(4-Chlorophenyl)ethyl]phenyl]-3,4-dihydro-4-oxo-2H-1-benzothiopyran-3-carboxamide, 1,1-dioxide]	3.5e-06	
COc1ccc(CCc2ccc(NC(=O)C3CS(=O)(=O)c4ccccc4C3=O)cc2)cc1 (centres unmarked) [Example 41]	4.5e-05	
O=C(Nc1ccc(CCc2ccc(-c3ccccc3)cc2)cc1)C1CS(=O)(=O)c2ccccc2C1=O (centres unmarked) [Example 46, N-[4-[2-([1,1'-biphenyl]-4-yl)ethyl]phenyl]-3,4-dihydro-4-oxo-2H-1-benzothiopyran-3-carboxamide, 1,1-dioxide]	1.1e-05	
